Like-named read-outs stand apart in the source and are kept apart here.
How the values were obtained:
Assay type in all cases: cell-based
E. coli ATCC 25922 = test: In vitro antibacterial activity assay (MIC, broth dilution); settings: Escherichia coli, ATCC25922
Excerpt: (§1) The method used to indicate the activity of the compounds in this example is to record the minimum inhibitory concentration (MIC) of the compounds against bacteria. The specific experimental method is as follows:
(§2) 1. The bacterial liquid cultured from a single colony was taken, and diluted into autoclaved CAMHB broth in a ratio of 1:1000, and mixed well.
(§3) 2. The prepared drug solution was filtered through a sterile 0.22 µm syringe filter and placed in a sterile EP tube for later use.
(§4) 3. A 96-well plate was taken, and 20 µL of drug solution ([…]) was added to each well in the first column of the 96-well plate. Then, 180 µL of diluted bacterial liquid was added and mixed well (Perform 3 replicate rows for each drug).
(§5) The same process was performed for the hydrochloride drug.
(§6) 4. 100 μL of diluted bacterial liquid was added to each well in the remaining 11 columns of the 96-well plate. Drugs are the same as above.
(§7) 5. Serial dilution: 100 μL of liquid was taken from the first column to the second column, mixed well, then 100 μL of liquid was taken from the second column to the third column, mixed well, and so on, sequentially diluting down to the last column (column 12). After mixing column 12 well, 100 μL of liquid thereof was discarded. The drug concentration in each well was decreased by two-fold serially (the concentration in the first well is 40 μg/mL).
(§8) 6. Blank CAMHB broth without added bacteria liquid was added to 3 blank wells in the 96-well plate, as negative control.
(§9) 7. The diluted bacterial liquid was added to 3 blank wells in the 96-well plate, as positive control.
(§10) 8. Incubated at 37° C. for 16 hours.
(§11) 9. Results reading: the minimum inhibitory concentration is the minimum drug concentration at which no bacterial growth is visible to the naked eye and without turbidity.

S. aureus ATCC 43300 = test: as above; settings: Staphylococcus aureus, ATCC43300
Excerpt: as §1, §2, §3, §4, §5, §6, §7, §8, §9, §10, §11

Hela = test: In vitro anticancer activity test (MTT cell proliferation); settings: Homo sapiens, average proliferation inhibition rate at the dosage of 40 μM, read-out: Hela Average inhibition rate %
Description: The anticancer activity of the compounds was tested using an in vitro cancer cell tests. The specific test method is as follows:
1. Cell recovery and culture method: the cryovial was taken out from the liquid nitrogen container firstly, soaked directly in 37° C. warm water, and shaked from time to time to let it thaw as soon as possible. Then, the cryovial was transferred to a clean bench, and the lid was open. The cell suspension was taken into a centrifuge tube using a rubber-tipped dropper and more than 10 times the culture medium was added, mixed well, and centrifuged at 50 g for 5 minutes. Then, the supernatant was discarded, complete culture medium containing 10% fetal bovine serum was added to resuspend the cells, the cells was counted, the cell density was adjusted, and then inoculated into a culture bottle. The culture bottle was placed in a cell culture incubator at 5% CO2 and 37° C. The complete culture medium was replaced once the next day and the culture was continued.
2. Cell passaging method: adherent cells in the logarithmic growth phase were placed in a clean bench, the original culture medium was discarded, and washed three times with 1×PBS. An appropriate amount of 0.25% trypsin digestion solution was added to moisten the cells, and then the trypsin solution was aspirated. The cells were placed in a cell culture incubator at 5% CO2 and 37° C. for digestion for a suitable time, and observed under a microscope. When 90% of the cells become round, the cells were moved immediately to the clean bench and complete culture medium was added to terminate digestion. Then, the cells were dislodged by pipetting up and down with a rubber-tipped dropper to single cells. The cells were counted, and the cell density was adjusted. The cells were inoculated into a suitable culture bottle or dish, added enough complete culture medium, and placed in a cell culture incubator at 5% CO2 and 37° C. for static culture.
For suspension cells in the logarithmic phase, the original culture medium was directly centrifuged at 50 g for 5 minutes, the supernatant was discarded, and the cells were washed once with PBS and centrifuged. After discarding the supernatant, the complete culture medium was added and the cells were dispersed using a rubber-tipped dropper. The cells are counted, and the cell density was adjusted. The cells were inoculated into appropriate culture bottles or culture dishes, and sufficient complete culture medium was added, and the cells were cultured in a cell culture incubator at 5% CO2 and 37° C.
3. Cell proliferation assay: cells in good state in logarithmic phase were taken and appropriate amount of the cells was inoculated into 96-well plates according to the cell passage treatment method, with each well containing 180 μL complete medium. After the cells growth was recovered and the number of cells in each well is 5000±500, a drug was added for treatment.
After drug treatment during the experimental time, MTT solution with a final concentration of 0.5 mg/mL was added to each well, and placed in a cell culture incubator at 5% CO2 and 37° C. to allow a fully reaction of MTT with cells. After 4 hours, the solution in the 96-well plate was discarded, 100 µL of DMSO was added, and shaked to dissolve the formazan precipitated at the bottom of the plate, and the absorbance value of samples was detected at a wavelength of 570 nm using a microplate reader. Calculation method of cell viability rate:
Table 4 lists some compounds that have inhibitory effects against both of bacteria and cancer cells. In the table, the inhibitory effects against cancer cells are shown: the average proliferation inhibition rate (%) against cancer cells at the dosage of 40 μM.

MIC (E. coli ATCC 25922; Table 3, read-out: MIC E. coli ATCC 25922): ≤ 0.1 µg/mL
MIC (E. coli ATCC 25922; Table 4, read-out: E. coli ATCC 25922 MIC): ≤ 1 µg/mL
MIC (S. aureus ATCC 43300; Table 3, read-out: MIC S. aureus ATCC 43300): ≤ 0.1 µg/mL
MIC (S. aureus ATCC 43300; Table 4, read-out: S. aureus ATCC 43300 MIC): ≤ 1 µg/mL
Structure (SMILES): O=C(CCl)Nc1ncc(-c2cc3c(cc2F)c(=O)c(C(=O)O)cn3C2CC2)cc1F [Example 135]
inhibition at 40 µM (Hela): ≥ 50%
